Assay results reported in patent US20080076751A1, “Azetidinone Derivatives and Methods of Use Thereof” (priority 2006, published 2008).

Each compound was assayed against T1, TRPV1 (VR1) (Rattus norvegicus, UniProt O35433) (assay: TRPV1 screening assay (FLIPR, Fluo-4 calcium), capsaicin stimulation). Conditions: FLIPR, HEK293-TetOFF-TRPV1, capsaicin 50 nM final; read-out: VR1 flipr CAPSAICIN IC50.
T1 construct: expressed in transfected cells; host or cells: HEK293-TetOFF, expression induced by withdrawing doxycycline
T1 sequence (O35433 whole entry): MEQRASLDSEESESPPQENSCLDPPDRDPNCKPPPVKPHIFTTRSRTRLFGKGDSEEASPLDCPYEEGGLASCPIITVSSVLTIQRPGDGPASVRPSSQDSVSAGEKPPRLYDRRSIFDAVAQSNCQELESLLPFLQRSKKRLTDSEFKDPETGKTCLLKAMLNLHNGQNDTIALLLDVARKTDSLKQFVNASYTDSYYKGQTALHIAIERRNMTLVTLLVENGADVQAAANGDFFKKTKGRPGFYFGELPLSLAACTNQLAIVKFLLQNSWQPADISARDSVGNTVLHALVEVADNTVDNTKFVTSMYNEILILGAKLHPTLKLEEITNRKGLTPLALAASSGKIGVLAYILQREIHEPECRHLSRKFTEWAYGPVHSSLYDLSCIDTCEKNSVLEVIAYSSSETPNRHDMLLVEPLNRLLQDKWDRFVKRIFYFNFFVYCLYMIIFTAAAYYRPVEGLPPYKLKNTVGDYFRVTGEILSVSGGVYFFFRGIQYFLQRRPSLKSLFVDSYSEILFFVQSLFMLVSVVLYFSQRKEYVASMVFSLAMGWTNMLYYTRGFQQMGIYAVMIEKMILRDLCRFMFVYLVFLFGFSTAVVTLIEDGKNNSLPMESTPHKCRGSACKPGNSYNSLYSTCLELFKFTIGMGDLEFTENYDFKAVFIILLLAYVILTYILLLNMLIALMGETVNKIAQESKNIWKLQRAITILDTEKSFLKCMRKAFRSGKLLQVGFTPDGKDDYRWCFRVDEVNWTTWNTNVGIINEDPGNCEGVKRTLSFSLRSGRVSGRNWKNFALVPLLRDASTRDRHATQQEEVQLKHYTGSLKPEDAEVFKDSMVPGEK
Assay type: cell-based
Text: • 1) Cell line: HEK293-Tet^OFF-TRPV1 • 2) Media: MEM (Invitrogen) • 3) 10% Tet-FBS (Clontech #8630-1) • 4) Fungizone (Gibe #15290-018 (100X)) • 5) Penn/Strep (Gibco #15140-122 (100X)) • 6) Geneticin (Gibco #10131-027 (100X)) • 7) Hygromycin (Clontech #8057-1) • 8) Doxycycline (Clontech #8634-1) • 9) Trypsin/EDTA (Gibco #25200-056) • 10) 100 mm cell culture plates (Falcon #3003) • 11) 96-well poly-D-lysine plates (Fisher #08-774-256) • 12) Hank's Balanced Salt Solution (HBSS) (GIBCO #14025-092) • 13) HEPES Buffer (GIBCO #15630-080) • 14) 30% BSA (Research Organics #1334A) • 15) Probenecid (Sigma P-8761) • 16) Fluo-4, AM (50 μg) (Molecular Probes F-23917) • 17) Pluronic F-127 20% (Molecular Probes P-3000). • 18) capsazepine (Sigma C-191) • 19) capsaicin (Sigma M-2028) • 20) compound plates (NUNC #442587) • 21) black pipet tips 96-well FLIPR (Robbins Scientific 1043-24-0) • 22) Additional reagents available from Fisher: methanol, DMSO, NaOH Reagent Preparation: 1) Cells: HEK293-Tet^OFF-TRPV11
• and Doxycycline 2.5 μg/mL final (from a 1000× stock in PBS) • Cells must be fed and/or split every 2-3 days (to maintain transcriptional repression with Doxycycline). • Must be split no more than 1:5 (50-75% confluency) to maintain growth and viability. • Grown on regular tissue culture plates (e.g Falcon 3003-100 mm) • Split cells via Trypsin/EDTA: incubate with trypsin at room temperature no longer than 5 minutes (HEK293 cells have a tendency to ball up if over trypsinized). • Two days prior to assay, the cells are split into 96-well plates in cell media in the absence of doxycycline at a concentration of 40,000 cells/well in a volume of 200 μL. 2) FLIPR buffer is prepared fresh:
Add 5 mL of Probenecid Solution, prepared as follows: 710 mg of probenecid (Sigma P-8761) is solubilized in 5 mL of 1N NaOH, 5 mL of above buffer is added for final volume of 10 mL. (of which 5 mL goes back into FLIPR buffer)
Combine 42 μL of dye mixture with 11 mL of FLIPR buffer/96-well plate.
Stock solution of 0.1 M capsaicin is prepared in MeOH (50 mg+1.6 mL MeOH). Store 50 μL aliquots at −80° C.
For assay: • a) Dilute stock by adding 0.8 μL into 1 mL of MeOH (final=80 uM). • b) Add 50 μL of diluted stock to 20 mL of FLIPR buffer (final=0.2 uM) • c) Agonist solution is added 150 μL/well to 96-well plate. • d) Final agonist concentration on cells will be 50 nM. […] Laser is adjusted upwards for an average signal≧10,000/well and less than 10% variability. 7) Compound addition conditions are as follows: • FLIPR setup (dual sequence parameters): • Sequence 1: • First interval 1 sec/60 counts • Second interval 6 sec/50 counts • Fluid addition=50 μL • Pipettor height 110 μL • Dispense Speed=30 μL/sec • Sequence 2: • Second interval 1 sec/60 counts • Second interval 6 sec/40 counts • Fluid addition=50 μL • Pipettor height=140 μL • Dispense Speed=50 μL/sec Data Analysis: • 1) Data from both additions is reported as Max-Min for each well

| IC50 | Compound |
| --- | --- |
| 0.001 µM | CC(C)(C)c1ccc(NC(=O)N2CCC3(CC2)C(=O)N(c2ccccn2)C3c2ccccc2)cc1 (stereo not drawn) |

Same assay, conditions: reference antagonist in reagent preparation; read-out: IC50 of competitive antagonist capsazepine

| IC50 | Compound |
| --- | --- |
| ~0.5 µM | Oc1cc2c(cc1O)CN(C(=S)NCCc1ccc(Cl)cc1)CCC2 [capsazepine, reference compound] |

What follows are compounds tested against T2, human CaV3.2 (Homo sapiens, UniProt O95180) (assay: IonWorks screen for hCaV3.2 (T-type calcium current, voltage clamp)). Conditions: IonWorks HT, HEK cells, 10 min incubation, pulse 10, 8-point curve; read-out: IW hCav3 2 IC50.
T2 construct: expressed in transfected cells
T2 sequence (O95180 whole entry): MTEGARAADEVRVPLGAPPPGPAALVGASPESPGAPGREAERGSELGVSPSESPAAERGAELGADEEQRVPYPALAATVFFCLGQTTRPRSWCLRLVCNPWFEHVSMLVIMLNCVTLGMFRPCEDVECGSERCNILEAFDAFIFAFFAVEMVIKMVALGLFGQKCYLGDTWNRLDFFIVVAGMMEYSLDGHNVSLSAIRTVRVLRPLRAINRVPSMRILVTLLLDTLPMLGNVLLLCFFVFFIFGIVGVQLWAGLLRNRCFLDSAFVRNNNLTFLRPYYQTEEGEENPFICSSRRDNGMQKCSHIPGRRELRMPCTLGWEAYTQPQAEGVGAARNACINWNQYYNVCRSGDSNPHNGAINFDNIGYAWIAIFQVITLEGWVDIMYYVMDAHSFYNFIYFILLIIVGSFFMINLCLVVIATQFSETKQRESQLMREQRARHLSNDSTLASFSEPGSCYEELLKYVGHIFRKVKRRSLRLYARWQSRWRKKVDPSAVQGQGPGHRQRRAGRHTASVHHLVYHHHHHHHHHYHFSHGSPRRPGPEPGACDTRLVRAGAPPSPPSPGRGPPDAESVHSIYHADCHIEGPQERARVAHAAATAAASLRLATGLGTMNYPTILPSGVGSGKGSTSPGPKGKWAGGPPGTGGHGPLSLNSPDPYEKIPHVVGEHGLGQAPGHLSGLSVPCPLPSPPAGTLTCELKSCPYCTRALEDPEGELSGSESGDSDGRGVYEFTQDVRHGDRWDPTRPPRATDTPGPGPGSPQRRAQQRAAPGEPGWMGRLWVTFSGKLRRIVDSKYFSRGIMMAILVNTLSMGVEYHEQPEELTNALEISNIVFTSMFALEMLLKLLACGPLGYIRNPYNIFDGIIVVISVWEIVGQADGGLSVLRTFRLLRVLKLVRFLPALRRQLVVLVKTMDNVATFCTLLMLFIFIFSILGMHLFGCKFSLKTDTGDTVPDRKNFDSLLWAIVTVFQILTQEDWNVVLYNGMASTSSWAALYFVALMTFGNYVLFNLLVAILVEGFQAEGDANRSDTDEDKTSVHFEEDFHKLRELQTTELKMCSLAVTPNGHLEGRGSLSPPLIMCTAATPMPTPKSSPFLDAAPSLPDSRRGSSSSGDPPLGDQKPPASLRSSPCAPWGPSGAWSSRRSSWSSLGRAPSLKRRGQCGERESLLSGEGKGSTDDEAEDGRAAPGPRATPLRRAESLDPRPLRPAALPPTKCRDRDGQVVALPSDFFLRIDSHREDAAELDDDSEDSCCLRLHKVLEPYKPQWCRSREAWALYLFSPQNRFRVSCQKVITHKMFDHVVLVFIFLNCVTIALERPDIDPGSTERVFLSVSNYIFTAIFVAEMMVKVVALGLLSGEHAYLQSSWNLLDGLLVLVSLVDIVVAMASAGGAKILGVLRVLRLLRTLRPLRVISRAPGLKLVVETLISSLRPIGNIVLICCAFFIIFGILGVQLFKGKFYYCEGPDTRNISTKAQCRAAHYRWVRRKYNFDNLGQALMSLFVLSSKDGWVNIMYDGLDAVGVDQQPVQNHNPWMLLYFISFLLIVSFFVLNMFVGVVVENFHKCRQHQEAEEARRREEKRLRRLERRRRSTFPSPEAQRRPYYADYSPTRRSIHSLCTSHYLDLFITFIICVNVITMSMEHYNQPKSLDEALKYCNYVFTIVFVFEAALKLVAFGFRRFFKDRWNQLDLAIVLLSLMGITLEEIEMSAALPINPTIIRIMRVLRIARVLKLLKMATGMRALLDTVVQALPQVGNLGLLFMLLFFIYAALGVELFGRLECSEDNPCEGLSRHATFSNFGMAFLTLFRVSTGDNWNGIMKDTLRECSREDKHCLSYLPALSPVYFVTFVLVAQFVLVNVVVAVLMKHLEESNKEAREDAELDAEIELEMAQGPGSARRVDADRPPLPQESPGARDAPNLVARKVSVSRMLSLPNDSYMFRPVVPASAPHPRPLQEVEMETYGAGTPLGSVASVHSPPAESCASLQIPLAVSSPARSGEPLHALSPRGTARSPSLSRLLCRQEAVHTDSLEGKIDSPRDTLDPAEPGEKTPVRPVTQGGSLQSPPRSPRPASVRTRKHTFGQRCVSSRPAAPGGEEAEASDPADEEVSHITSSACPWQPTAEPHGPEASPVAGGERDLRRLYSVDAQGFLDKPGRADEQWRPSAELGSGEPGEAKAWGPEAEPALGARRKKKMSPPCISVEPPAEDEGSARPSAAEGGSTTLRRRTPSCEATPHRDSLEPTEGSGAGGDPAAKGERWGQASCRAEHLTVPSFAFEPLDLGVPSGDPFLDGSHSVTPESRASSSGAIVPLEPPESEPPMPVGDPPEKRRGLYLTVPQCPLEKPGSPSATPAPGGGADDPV
Assay type: cell-based
Text: Functional evaluation of voltage-gated ion channels can be used to determine potency and/or single concentration efficacy of the Azetidinone Derivatives of the present invention. Two different methodologies can be used to measure ion currents: the lonWorks HT (Molecular Devices, Sunnyvale, Calif.) a moderate throughput voltage clamp screening platform that utilizes 96-well compound plates and conventional whole cell patch clamp for lower throughput, higher fidelity determinations.
HEK cells are transiently transfected and then selected for stable heterologous expression of different channel proteins of interest. Calcium channel cell lines expressed a resting potassium current, human Kir2.1, and the pore forming α-subunit of voltage-gated calcium channels. In the case of CaV2.1 cells the auxiliary subunit, β2a, is also expressed. Calcium channel lines that are used to generate the data will express either human CaV3.2, rat CaV3.2 or human CaV2.1. The human heart sodium channel, hNaV1.5, are stably expressed in CHO cells.
Cell lines can be grown at 37° C. in humidified incubators, equilibrated with 95% air/5% CO2. CHO cells can be grown in Ham's F-12 medium. HEK cells can be grown in DMEM. All media are supplemented with 10% heat-inactivated fetal bovine serum, penicillin, streptomycin and appropriate selection antibiotics (zeocin, geneticin and/or hygromycin). Cells are passaged when 80% confluent or less.
IonWorks Screen for hCaV3.2
The extracellular buffer for experiments using this instrument contained the following (mM) (NaCl 125, HEPES 10, KCl 5.4, CaCl2 1.8, MgCl2 1.8, 0.2 BaCl2 pH 7.35). The lonWorks uses amphotericin to gain electrical access to the cell interior. The internal solution contained (mM concentrations): 130 K-gluconate, 20 KCl, 5 HEPES-KOH (pH 7.25), 2 CaCl2, 1 MgCl2. Amphotericin added at 5 mg in 65 mL when present (in 650 μL DMSO). All internal and external solutions for this experiment contain 1% DMSO. Cells were acutely trypsinized from a T-75 flask and resuspended in extracellular buffer at a density of 2×10^5 cells/mL.
Experiments were performed at room temperature. Transmembrane potential was held at −100 mV for 5 seconds prior to running the voltage protocol. During this time leak currents were measured during a step to −110 mV (200 milliseconds). T-type calcium currents were activated with a 250 millisecond step to −20 mV. This depolarization step was repeated for a total of 10 pulses with an interpulse interval of 1 second. Data were excluded if the following acceptance criteria were not met: total resistance for the pre-compound scan>65 MΩ, pre-compound current>250 pA, post compound total resistance>50 MΩ.
T-type currents were measured as the peak inward current minus the current at the end of the 250 msec step to −20 mV. After the recoding configuration was established there was a pre-compound measurement of current amplitude. Compound was added as a 3× solution containing 1% DMSO. After incubation with compound for 10 minutes currents were measured again. The current amplitude after compound addition was divided by the pre-compound current for pulse 10 to determine the fraction of current remaining after compound addition. For each compound, 8-point concentration-effect relationships were measured with ½ log serial dilutions.

| Compound | IC50 |
| --- | --- |
| CC[C@H](C)[C@H](NC(=O)N1CCC2(CC1)C(=O)N(c1cccc(Cl)c1)C2c1ccccn1)C(=O)OC (stereo partly drawn) [drawing 571] | 0.584 µM |
| CC[C@H](C)[C@H](NC(=O)N1CCC2(CC1)C(=O)N(c1cccc(Cl)c1)C2c1ccccn1)C(=O)OC (stereo partly drawn) [drawing 572] | 0.635 µM |
| CC(NC(=O)N1CCC2(CC1)C(=O)N(c1cccc(Cl)c1)C2c1ccccn1)c1ccc(F)cc1 (stereo not drawn) [drawing 575] | 0.745 µM |
| CC(NC(=O)N1CCC2(CC1)C(=O)N(c1cccc(Cl)c1)C2c1ccccn1)c1ccc(F)cc1 (stereo not drawn) [drawing 576] | 0.191 µM |
| N#Cc1cccc(N2C(=O)C3(CCN(C(=O)Nc4cc(F)cc(F)c4)CC3)C2c2ccccn2)c1 (stereo not drawn) [drawing 585] | 0.732 µM |
| N#Cc1cccc(N2C(=O)C3(CCN(C(=O)Nc4cc(F)cc(F)c4)CC3)C2c2ccccn2)c1 (stereo not drawn) [drawing 586] | 0.247 µM |

More lines, now with the values ahead:

| IC50 | Compound |
| --- | --- |
| 2.91 µM | N#Cc1cccc(NC(=O)N2CCC3(CC2)C(=O)N(c2cccc(C#N)c2)C3c2ccccn2)c1 (stereo not drawn) [drawing 593] |
| 1.17 µM | N#Cc1cccc(NC(=O)N2CCC3(CC2)C(=O)N(c2cccc(C#N)c2)C3c2ccccn2)c1 (stereo not drawn) [drawing 594] |
| 0.225 µM | C[C@H](NC(=O)N1CCC2(CC1)C(=O)N(c1cccc(Cl)c1)C2c1cccnc1)c1ccc(F)cc1 (stereo partly drawn) [drawing 611] |
| 0.124 µM | N#Cc1cccc(NC(=O)N2CCC3(CC2)C(=O)N(c2cccc(Cl)c2)C3c2cccnc2)c1 (stereo not drawn) [drawing 634] |
| 0.021 µM | O=C(Nc1cc(F)cc(F)c1)N1CCC2(CC1)C(=O)N(c1cccc(Cl)c1)C2c1cccnc1 (stereo not drawn) [drawing 635] |
| 0.42 µM | O=C(Nc1cc(F)cc(F)c1)N1CCC2(CC1)C(=O)N(c1cccc(Cl)c1)C2c1cccnc1 (stereo not drawn) [drawing 636] |
| 0.669 µM | C[C@H](NC(=O)N1CCC2(CC1)C(=O)N(c1cccc(Cl)c1)C2c1cccnc1)c1ccc(F)cc1 (stereo partly drawn) [drawing 637] |
| 0.88 µM | CC[C@H](C)[C@H](NC(=O)N1CCC2(CC1)C(=O)N(c1cccc(Cl)c1)C2c1cccnc1)C(=O)OC (stereo partly drawn) [drawing 640] |
| 1.3 µM | CC[C@H](C)[C@H](NC(=O)N1CCC2(CC1)C(=O)N(c1cccc(Cl)c1)C2c1cccnc1)C(=O)OC (stereo partly drawn) [drawing 641] |
| 1.66 µM | N#Cc1cccc(NC(=O)N2CCC3(CC2)C(=O)N(c2cccc(Cl)c2)C3c2cccnc2)c1 (stereo not drawn) [drawing 643] |
